# Data reported in PubChem BioAssay (NCI).
#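 Tested at 5 concentrations; 48 h exposure; 96-well plates; endpoints linearly interpolated, else capped at highest concentration. GI50: concentration for 50% inhibition of growth. TGI denotes the concentration required for complete inhibition of growth.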
# Legend:
# Assay in all cases: NCI-60 cell line screen, 48 h
# NCI-H522 lung = system: NCI-H522 lung
# UO-31 renal = system: UO-31 renal
# SK-OV-3 ovarian = system: SK-OV-3 ovarian
# SNB-19 CNS = system: SNB-19 CNS
# M14 melanoma = system: M14 melanoma
# IGROV1 ovarian = system: IGROV1 ovarian
# OVCAR-3 ovarian = system: OVCAR-3 ovarian
# CCRF-CEM leukemia = system: CCRF-CEM leukemia
# HS 578T breast = system: HS 578T breast
# HOP-92 NSCLC = system: HOP-92 NSCLC
SMILES,GI50 (NCI-H522 lung) [µM],TGI (NCI-H522 lung) [µM],GI50 (UO-31 renal) [µM],TGI (UO-31 renal) [µM],GI50 (SK-OV-3 ovarian) [µM],TGI (SK-OV-3 ovarian) [µM],GI50 (SNB-19 CNS) [µM],TGI (SNB-19 CNS) [µM],GI50 (M14 melanoma) [µM],TGI (M14 melanoma) [µM],GI50 (IGROV1 ovarian) [µM],TGI (IGROV1 ovarian) [µM],GI50 (OVCAR-3 ovarian) [µM],TGI (OVCAR-3 ovarian) [µM],GI50 (CCRF-CEM leukemia) [µM],TGI (CCRF-CEM leukemia) [µM],GI50 (HS 578T breast) [µM],TGI (HS 578T breast) [µM],GI50 (HOP-92 NSCLC) [µM],TGI (HOP-92 NSCLC) [µM]
COc1ccc(-c2cnnn2-c2nonc2-n2cccc2)cc1OC,2.32,11.3,6.27,> 100,5.18,29.8,13.2,> 100,3.28,> 100,5.13,> 100,3.97,> 100,3.3,> 100,4.55,75.7,–,–
Cc1cc(NCc2cc(Nc3ccnc4cc(Cl)ccc34)ccc2F)nc(N2CCOCC2)n1,1.84,4.39,1.3,2.71,1.7,3.36,3.79,54.4,–,–,1.93,5.11,1.53,2.95,2.53,34.6,2.07,6.97,1.34,3.13
Cn1c(=O)n(C)c2cc(CNCCNc3ccnc4cc(Cl)ccc34)ccc21,30.2,93.3,23.3,> 100,72.7,> 100,27.9,> 100,–,–,37.4,> 100,30.8,> 100,30.7,> 100,23.8,95,10.1,49.6
O=C1c2cccnc2-c2nc(-c3cccnc3)cc3c2c1nc1ccccc13,1.74,4.35,15.2,37.3,15.3,29.8,5.59,21,1.93,3.51,3.12,28.4,–,–,5.23,> 100,2.94,> 20.9,6.44,80.6
COc1ccc(Nc2nc(Nc3cc(C)[nH]n3)c3cc(OC)c(OC)cc3n2)cc1,1.44,4.48,1.45,2.93,1.83,3.33,1.56,3.18,1.31,2.89,–,–,1.01,2.26,–,–,1.25,3.15,1.29,2.93
NC(=O)c1cccnc1,> 100,> 100,–,–,> 100,> 100,> 100,> 100,> 100,> 100,–,–,> 100,> 100,5.99,> 100,> 100,> 100,> 100,> 100
COC(=O)C(C(=O)C(=O)Nc1ccc(C)cc1C)c1csc(-n2nc(-c3ccccc3)cc2-c2ccccc2)n1 (stereo not drawn),–,> 100,–,> 100,–,> 100,–,> 100,–,> 100,–,> 100,–,> 100,–,> 100,–,–,–,> 100
